# In US20240051936A1, “ISOINDOLINONE COMPOUNDS” (Monte Rosa Therapeutics, Inc., priority 2021, published 2024):
# Read-outs that look alike come from different tables or passages of the source.
# Key:
# [1] = molecular target: Full length wild-type cereblon CRBN (Homo sapiens (Human), UniProt Q96SW2); assay: Fluorescence polarization (FP) assay, cereblon binding
# Procedure: Compound activity was monitored in a fluorescence polarization (FP) homogeneous assay using 1-[5-({2-[2-(2-{[2-(2,6-dioxopiperidin-3-yl)-1,3-dioxo-2,3-dihydro-1H-isoindol-4-yl]oxy}acetamido)ethoxy]ethyl}carbamoyl)pentyl]-3,3-dimethyl-2-[(1E,3E)-5-[(2E)-1,3,3-trimethyl-5-sulfo-2,3-dihydro-1H-indol-2-ylidene]penta-1,3-dien-1-yl]-3H-indol-1-ium-5-sulfonate as a fluorescent probe. Unless otherwise stated, all reagents were purchased from Sigma Aldrich. Enzymatic reactions were conducted in Perkin-Elmer Black 384 well ProxiPlate Plus (catalogue no. 6008269) in 10 sL total volume. Full length wild-type cereblon CRBN (80.0 nM, 10 sL) was incubated in assay buffer containing 20 mM HEPES (pH 8.0), […], 0.5 mM TCEP and 0.05% Tween 20 in the presence or absence of compound (300 nL). Inhibitors were stored as 10 mM DMSO stocks in an inert environment (low humidity, dark, low oxygen, room temperature) using the Storage Pod System.
# Compounds and DMSO were dispensed using the Echo E5XX (Labcyte Inc. USA) to give concentrations from 300 to 0.937 or 3000 to 9.3 nM in a 12 data point curve. […] Following incubation at room temperature for 30 min, the assay was initiated by dispensing the probe to a final concentration of 5 nM (2.5 nL of a 20 μM stock) using the Echo E5XX. FP was measured after a period of 12 hours using a Pherastar plate reader (BMG Labtech, Germany) exciting at 590 nm and measuring the amount of parallel and perpendicular light at 675 nm. The FP signal was subsequently normalized to the no-compound control (i.e., DMSO). Analysis and IC50 values were derived using Dotmatics (Dotmatics UK) software.
# GSPT1 = GSPT1 (Homo sapiens (Human), UniProt P15170+Q96SW2); assay: Immunofluorescence assay for GSPT1 degradation in CAL-Si cells; assay type: cell-based; conditions: CAL-Si cells
# Procedure: The compounds were tested in an immunofluorescence assay for their activity to bind to degrade GSPT1. CAL-Si cells were purchased from DSMZ (cat. Number ACC302), sub-cultured in 90% Dulbecco's MEM (4.5 g/L glucose, Gibco 11965)+10% heat inactivated FBS (BioConcept, 2-01F136I) and incubated at 37° C., 5% CO2. For the assay, imaging microtiterplate Cell Carrier 96 Ultra (Perkin Elmer 6055302) were pre-coated with Fibronectin (Sigma F085, 30 μl at 0.2 μg/ml) in PBS (100 μl, Gibco 14190) for 45 min at room temperature, rinsed with PBS and CAL-Si cells (30K cells/well) were plated and let to adhere overnight. Cells were treated with compounds typically using a serial dilution ranging from 30 μM to 0.1 nM for 6 hours. Compounds were stored at 10 mM DMSO stocks. Vehicle (DMSO), positive (CC-885, 10 μM) and rescue controls (positive control plus 0.2 μM bortezomib) were also included at this stage. Cells were subsequently rinsed with PBS and fixed in 10% Formalin solution (50 μl, Sigma HT5011)) for 20 mins at room temperature. Following three consecutive PBS washes (100 μl), cells were permeabilized in 0.1% Triton X-100 in PBS (Sigma 93443, 50 μl) for 15 mins at room temperature. Following three further PBS washes, 50 μl blocking buffer (1% BSA, Sigma A4503, in PBS) was added for 45 min for signal-to-noise reduction.
# Primary antibody (human GSPT1, Sigma HPA052488) was diluted in blocking buffer (dil.1/300, 35 μl/well) and incubated with the cells overnight at 4° C. After three PBS washes, Alexa-fluor 488 coupled secondary antibodies (Invitrogen, A32731, dil.1/1000), Alexa-fluor 647-Phalloïdin (Invitrogen, A22287, dil.1/200) and DAPI (Thermo, #62248, dil.1/1000) were diluted in blocking buffer and incubated with the samples for 2 hours at room temperature. After three final PBS washes, samples were conserved in 100 μl PBS in the dark, until measurement. Image acquisition was performed on the Operetta High-Content Imager (Perkin-Elmer). Fluorescence intensity of Alexa-Fluor 488 (GSPT1), Alexa-Fluor 647 (Actin) and DAPI (Nucleus) were measured. For the determination of GSPT1 DC50 values, a custom algorithm implemented in the PerkinElmer image analysis software Harmony-Acapella® was developed. After user-defined setting of adjustment parameters, the analysis was run identically without human intervention for all image fields. DAPI staining of the nuclei was used to determine the location of cells using standard nuclei detection modules. Segmentation artifacts were removed by threshold-based filters for area, roundness and intensity. The outline of the cells was determined analogously from the sum of the normalized, smoothed DAPI and Actin channel, starting from each nucleus. The Alexa-Fluor 488 (GSPT1) signal intensity in each cell was finally measured, in order to obtain a Mean intensity per cell. GSPT1 degradation (DC50) was calculated after normalization to controls and data import in CDD vault Database, using non-linear regression.
# [2] = cereblon binding, bound, read-out: IC50 value
# [3] = wild-type CRBN 80.0 nM, probe 5 nM, FP measured after 12 hours, read-out: rFP IC50
# [4] = treated 6 hours, read-out: Code, activity for GSPT1 degradation (DC50)
# GSPT1, sequence (P15170 whole entry): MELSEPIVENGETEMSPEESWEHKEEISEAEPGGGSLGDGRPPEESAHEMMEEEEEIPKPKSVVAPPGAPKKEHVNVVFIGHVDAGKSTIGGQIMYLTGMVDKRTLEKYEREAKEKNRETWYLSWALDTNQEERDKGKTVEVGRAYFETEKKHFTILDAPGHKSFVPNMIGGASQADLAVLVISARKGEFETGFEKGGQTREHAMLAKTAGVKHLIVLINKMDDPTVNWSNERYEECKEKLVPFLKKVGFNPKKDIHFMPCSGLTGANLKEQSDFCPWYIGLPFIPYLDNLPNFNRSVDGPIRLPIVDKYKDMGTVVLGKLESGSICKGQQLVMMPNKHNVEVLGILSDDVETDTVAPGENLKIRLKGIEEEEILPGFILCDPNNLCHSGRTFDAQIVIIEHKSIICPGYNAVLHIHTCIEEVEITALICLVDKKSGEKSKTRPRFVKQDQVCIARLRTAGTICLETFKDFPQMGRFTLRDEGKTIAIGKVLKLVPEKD
# GSPT1, sequence (Q96SW2 whole entry): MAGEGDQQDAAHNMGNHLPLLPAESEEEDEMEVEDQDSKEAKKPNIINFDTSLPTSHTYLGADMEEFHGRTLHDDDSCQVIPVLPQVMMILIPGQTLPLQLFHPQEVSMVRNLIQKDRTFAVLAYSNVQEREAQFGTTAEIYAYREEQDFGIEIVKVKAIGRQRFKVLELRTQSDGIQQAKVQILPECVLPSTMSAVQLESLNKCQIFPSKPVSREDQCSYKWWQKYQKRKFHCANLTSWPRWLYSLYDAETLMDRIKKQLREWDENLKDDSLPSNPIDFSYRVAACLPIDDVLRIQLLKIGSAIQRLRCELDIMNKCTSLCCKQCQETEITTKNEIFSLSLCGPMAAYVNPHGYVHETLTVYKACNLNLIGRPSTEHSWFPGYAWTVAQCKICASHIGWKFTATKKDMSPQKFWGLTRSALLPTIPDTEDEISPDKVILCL
# GSPT1, sequence (Q16531 whole entry partner): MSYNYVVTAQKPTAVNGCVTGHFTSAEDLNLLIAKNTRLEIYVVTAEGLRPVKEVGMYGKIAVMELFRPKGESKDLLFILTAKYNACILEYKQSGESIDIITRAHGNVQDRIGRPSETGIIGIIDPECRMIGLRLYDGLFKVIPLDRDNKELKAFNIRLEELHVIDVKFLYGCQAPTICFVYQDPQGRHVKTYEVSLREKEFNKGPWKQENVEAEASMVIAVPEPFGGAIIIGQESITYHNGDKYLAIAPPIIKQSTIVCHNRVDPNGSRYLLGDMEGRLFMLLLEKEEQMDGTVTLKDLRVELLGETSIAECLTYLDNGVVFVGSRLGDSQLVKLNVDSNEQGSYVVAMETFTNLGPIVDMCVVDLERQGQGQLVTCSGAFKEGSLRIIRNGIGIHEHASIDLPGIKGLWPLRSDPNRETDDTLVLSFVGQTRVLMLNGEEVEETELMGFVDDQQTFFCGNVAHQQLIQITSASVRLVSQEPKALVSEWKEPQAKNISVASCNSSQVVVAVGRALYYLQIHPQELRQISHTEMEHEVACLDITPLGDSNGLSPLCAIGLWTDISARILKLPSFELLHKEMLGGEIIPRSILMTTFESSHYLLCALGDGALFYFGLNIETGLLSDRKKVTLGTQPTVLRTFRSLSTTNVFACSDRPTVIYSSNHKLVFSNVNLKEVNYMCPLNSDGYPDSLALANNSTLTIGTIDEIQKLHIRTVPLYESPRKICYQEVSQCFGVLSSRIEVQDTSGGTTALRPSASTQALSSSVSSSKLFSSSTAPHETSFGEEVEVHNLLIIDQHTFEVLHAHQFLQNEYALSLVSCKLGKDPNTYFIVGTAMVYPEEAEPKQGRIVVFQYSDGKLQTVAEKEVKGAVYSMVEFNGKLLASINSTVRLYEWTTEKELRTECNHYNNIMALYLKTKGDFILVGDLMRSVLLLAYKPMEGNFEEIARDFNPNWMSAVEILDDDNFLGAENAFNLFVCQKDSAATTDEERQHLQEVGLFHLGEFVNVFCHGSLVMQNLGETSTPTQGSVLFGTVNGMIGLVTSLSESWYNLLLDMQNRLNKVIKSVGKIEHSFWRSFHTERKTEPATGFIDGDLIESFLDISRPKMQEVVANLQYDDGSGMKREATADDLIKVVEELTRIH
# Full length wild-type cereblon CRBN, sequence (Q96SW2 whole entry): as the sequence (Q96SW2 whole entry) above
Structure (SMILES),"IC50 [1, 2] [nM]","IC50 [1, 3] [nM]",DC50 (GSPT1; [4]) [nM],"DC50 (GSPT1; compounds with code A, read-out: DC50 value code) [nM]"
"COc1cc(COC(=O)Nc2ccc(N3CCCC3C)nc2)cc2c1CN(C1CCC(=O)NC1=O)C2=O (stereo in doubt) [Compound 62, (2-(2,6-dioxopiperidin-3-yl)-7-methoxy-3-oxoisoindolin-5-yl)methyl (6-((R)-2-methylpyrrolidin-1-yl)pyridin-3-yl)carbamate]",< 600,≤ 600,,
"Cc1ccc(NC(=O)OCc2cc(Br)c3c(c2)C(=O)N(C2CCC(=O)NC2=O)C3)cc1Cl (centres unmarked) [Compound 1, (7-bromo-2-(2,6-dioxopiperidin-3-yl)-3-oxoisoindolin-5-yl)methyl(3-chloro-4-methylphenyl)carbamate]",,> 1900,30 to 300,
"Cc1ccc(NC(=O)OCc2cc(C#N)c3c(c2)C(=O)N(C2CCC(=O)NC2=O)C3)cc1Cl (centres unmarked) [Compound 2, (7-cyano-2-(2,6-dioxopiperidin-3-yl)-3-oxoisoindolin-5-yl)methyl (3-chloro-4-methylphenyl)carbamate]",,> 1900,30 to 300,
"Cc1ccc(NC(=O)OCc2cc(F)c3c(c2)C(=O)N(C2CCC(=O)NC2=O)C3)cc1Cl (centres unmarked) [Compound 3, (2-(2,6-dioxopiperidin-3-yl)-7-fluoro-3-oxoisoindolin-5-yl)methyl(3-chloro-4-methylphenyl)carbamate]",,> 1900,30 to 300,
"Cc1ccc(NC(=O)OCc2cc(Cl)c3c(c2)C(=O)N(C2CCC(=O)NC2=O)C3)cc1Cl (centres unmarked) [Compound 4, (7-chloro-2-(2,6-dioxopiperidin-3-yl)-3-oxoisoindolin-5-yl)methyl (3-chloro-4-methylphenyl)carbamate]",,> 1900,30 to 300,
"COc1cc(COC(=O)Nc2ccc(C)c(Cl)c2)cc2c1CN(C1CCC(=O)NC1=O)C2=O (centres unmarked) [Compound 5, (2-(2,6-dioxopiperidin-3-yl)-7-methoxy-3-oxoisoindolin-5-yl)methyl(3-chloro-4-methylphenyl)carbamate]",< 600,600 to 1200,< 30,< 30
"O=C1CCC(N2Cc3c(F)cc(COC(=O)Nc4cc(F)cc(OC(F)F)c4)cc3C2=O)C(=O)N1 (centres unmarked) [Compound 6, (2-(2,6-dioxopiperidin-3-yl)-7-fluoro-3-oxoisoindolin-5-yl)methyl(3-(difluoromethoxy)-5-fluorophenyl)carbamate]",,> 1900,30 to 300,
"O=C1CCC(N2Cc3c(F)cc(COC(=O)Nc4ccc(F)c(OC(F)F)c4)cc3C2=O)C(=O)N1 (centres unmarked) [Compound 7, (2-(2,6-dioxopiperidin-3-yl)-7-fluoro-3-oxoisoindolin-5-yl)methyl(3-(difluoromethoxy)-4-fluorophenyl)carbamate]",< 600,1200 to 1900,30 to 300,
"CC(C)(C)c1ccc(NC(=O)OCc2cc(F)c3c(c2)C(=O)N(C2CCC(=O)NC2=O)C3)cn1 (centres unmarked) [Compound 9, (2-(2,6-dioxopiperidin-3-yl)-7-fluoro-3-oxoisoindolin-5-yl)methyl(6-(tert-butyl)pyridin-3-yl)carbamate]",< 600,,,
"CC1(C)COc2cc(NC(=O)OCc3cc(F)c4c(c3)C(=O)N(C3CCC(=O)NC3=O)C4)ccc21 (centres unmarked) [Compound 17, (2-(2,6-dioxopiperidin-3-yl)-7-fluoro-3-oxoisoindolin-5-yl)methyl(3,3-dimethyl-2,3-dihydrobenzofuran-6-yl) carbamate]",< 1200,,,
"Cc1cc(NC(=O)OCc2cc(F)c3c(c2)C(=O)N(C2CCC(=O)NC2=O)C3)cnc1-c1ccccc1 (centres unmarked) [Compound 20, (2-(2,6-dioxopiperidin-3-yl)-7-fluoro-3-oxoisoindolin-5-yl)methyl(5-methyl-6-phenylpyridin-3-yl)carbamate]",< 600,,,
"C[C@@H]1CCCN1c1ccc(NC(=O)OCc2cc(F)c3c(c2)C(=O)N(C2CCC(=O)NC2=O)C3)cn1 (stereo partly drawn) [Compound 23, (2-(2,6-dioxopiperidin-3-yl)-7-fluoro-3-oxoisoindolin-5-yl)methyl (6-((R)-2-methylpyrrolidin-1-yl)pyridin-3-yl)carbamate]",< 600,,,
"Cc1cc(Cl)cc(NC(=O)OCc2cc(F)c3c(c2)C(=O)N(C2CCC(=O)NC2=O)C3)c1 (centres unmarked) [Compound 27, (2-(2,6-dioxopiperidin-3-yl)-7-fluoro-3-oxoisoindolin-5-yl)methyl(3-chloro-5-methylphenyl)carbamate]",< 600,,,
"COc1cc(COC(=O)Nc2ccc(F)c(OC(F)(F)F)c2)cc2c1CN(C1CCC(=O)NC1=O)C2=O (centres unmarked) [Compound 39, (2-(2,6-dioxopiperidin-3-yl)-7-methoxy-3-oxoisoindolin-5-yl)methyl(4-fluoro-3-(trifluoromethoxy)phenyl) carbamate]",< 600,,,
"COc1cc(COC(=O)Nc2cc(F)cc(OC(F)F)c2)cc2c1CN(C1CCC(=O)NC1=O)C2=O (centres unmarked) [Compound 47, (2-(2,6-dioxopiperidin-3-yl)-7-methoxy-3-oxoisoindolin-5-yl)methyl(3-(difluoromethoxy)-5-fluorophenyl) carbamate]",< 600,,,
"COc1cc(COC(=O)Nc2ccc(C3CCC3)cc2)cc2c1CN(C1CCC(=O)NC1=O)C2=O (centres unmarked) [Compound 57, (2-(2,6-dioxopiperidin-3-yl)-7-methoxy-3-oxoisoindolin-5-yl)methyl(4-cyclobutylphenyl) carbamate]",< 1200,,,
"Cc1cc(F)cc(NC(=O)OCc2cc(F)c3c(c2)C(=O)N(C2CCC(=O)NC2=O)C3)c1 (centres unmarked) [Compound 63, (2-(2,6-dioxopiperidin-3-yl)-7-fluoro-3-oxoisoindolin-5-yl)methyl (3-fluoro-5-methylphenyl)carbamate]",,,30 to 300,
"Cc1cc(F)c(NC(=O)OCc2cc(F)c3c(c2)C(=O)N(C2CCC(=O)NC2=O)C3)cc1Cl (centres unmarked) [Compound 64, (2-(2,6-dioxopiperidin-3-yl)-7-fluoro-3-oxoisoindolin-5-yl)methyl(5-chloro-2-fluoro-4-methylphenyl)carbamate]",,,30 to 300,
"O=C1CCC(N2Cc3c(F)cc(COC(=O)Nc4cc(OC(F)(F)F)ccc4F)cc3C2=O)C(=O)N1 (centres unmarked) [Compound 65, (2-(2,6-dioxopiperidin-3-yl)-7-fluoro-3-oxoisoindolin-5-yl)methyl (2-fluoro-5-(trifluoromethoxy)phenyl) carbamate]",,,30 to 300,
"COc1cc(COC(=O)Nc2cc(Cl)c(C)cc2F)cc2c1CN(C1CCC(=O)NC1=O)C2=O (centres unmarked) [Compound 68, (2-(2,6-dioxopiperidin-3-yl)-7-methoxy-3-oxoisoindolin-5-yl)methyl (5-chloro-2-fluoro-4-methylphenyl)carbamate]",,,> 300,
"Cc1ccc(NC(=O)OCc2ccc3c(c2C)C(=O)N(C2CCC(=O)NC2=O)C3)cc1Cl (centres unmarked) [Compound 73, (2-(2,6-dioxopiperidin-3-yl)-4-methyl-3-oxoisoindolin-5-yl)methyl(3-chloro-4-methylphenyl)carbamate]",,≤ 600,,
